Measurements published in the NIST ThermoML archive (doi:10.1016/j.jct.2012.01.028).

Settings: 101.33 kPa, Liquid; for electrical conductivity: Alternating current cell with electrodes; for speed of sound: Sing-around technique in a fixed-path interferometer; for mass density: Vibrating tube method

CCCCn1cc[n+](C)c1.F[P-](F)(F)(F)(F)F [1-butyl-3-methylimidazolium hexafluorophosphate]
Settings	electrical conductivity [S/m]	mass density [kg/m3]	speed of sound [m/s]
293.15 K	0.137	1371.61	1454.9
298.15 K	0.183	1367.65	1442.6
303.15 K	0.224	1363.13	1430.7
308.15 K	0.267	1359.04	1419
313.15 K	0.314	1354.93	1407.6
318.15 K	0.384	1350.83	1396.3
323.15 K	0.459	1346.72	1385.2
